What all share (assay type): in vivo
The test system of one experiment is Beans. In words: Beans greenhouse trial, foliar treatment. The following applies: equivalent of 5 lt/ha. The method, then:
Lettuce, beans, wheat and tomatoes were selected as plants to test the efficacy of the invention. Short term crops were grown in the greenhouse to ensure controlled condition and long term crops were grown outdoors in replicated trials. All relevant parameters to evaluate efficacy were tested including chlorophyll content, sugar levels, Mg and Fe tissue content, yield and quality characteristics. All trials were performed to good experimental practice (GEP) standards with adequate replication to conform to statistical comparisons. Environmental condition were monitored and kept the same between treatments for evaluation. John Innes soil based compost with low nutrient contents was used for the experiments and sieved to ensure uniformity. The applications were made to be applied at the equivalent of 5 lt/ha of end product in 180 lt of water. Treatments were administered foliarly just before runoff point. The magnesium and iron were in the form of Sulphate. […] Larger plants expressed as weight per plant was observed together with an increase in chlorophyll content, Mg and Fe content in the plant tissue and leaf diameter (which promotes resource capture). A reduction in internode length was also observed which is favourable for many greenhouse and outdoor vegetable crops.

A further experiment deals with Tomatoes. In words: Tomatoes trial under glass, foliar treatment. The note with it: equivalent of 5 lt/ha. The method, then:
(§1) Lettuce, beans, wheat and tomatoes were selected as plants to test the efficacy of the invention. Short term crops were grown in the greenhouse to ensure controlled condition and long term crops were grown outdoors in replicated trials. All relevant parameters to evaluate efficacy were tested including chlorophyll content, sugar levels, Mg and Fe tissue content, yield and quality characteristics. All trials were performed to good experimental practice (GEP) standards with adequate replication to conform to statistical comparisons. Environmental condition were monitored and kept the same between treatments for evaluation. John Innes soil based compost with low nutrient contents was used for the experiments and sieved to ensure uniformity. The applications were made to be applied at the equivalent of 5 lt/ha of end product in 180 lt of water. Treatments were administered foliarly just before runoff point. The magnesium and iron were in the form of Sulphate.
The trial on tomatoes under glass had shown a significant increase in yield and quality characteristics with the application of the present invention. […] The internode length reduced on average by 20% which is desirable for tomato plants grown under glass due to the infrastructure restrictions and efforts towards vegetative growth.

For a further experiment, the system named is Lettuce. In words: Lettuce greenhouse trial, foliar treatment. The procedure:
as §1

Where [1] appears, read: lettuce, foliar, equivalent of 5 lt/ha.

The source of these data is patent US9949486B2, “Agrochemical composition comprising a N,N#-disubstituted (thio)urea for the improvement of crop productivity” (Crop Intellect Ltd., priority 2014, dated 2018).

Each structure is given as a SMILES string.

For the compound `O=C(Nc1ccccc1)Nc1ccccc1` [DPU, 1,3-diphenylurea], in the experiment on Beans (beans plant tissue), the “Fe content” value is on record as 86 mg/kg and the “Mg content (%)” value came to 0.42%. In the experiment with Beans (beans), the “Chlorophyll (mg/cm^2)” value is on record as 0.025 mg/cm^2, the Internode length is given as 7 and the “Leaf diameter (cm)” value is recorded as 7.8 cm. The “Yield” value in the experiment with Beans (beans, fresh weight of above ground plant at 6 wks (st. error ±10)) was determined as 364 g. Also, the “Yield” value with Tomatoes (average fruit fresh weight) is on record as 132 g. Moreover, in the experiment on Tomatoes, the “Chlorophyll (mg/cm^2)” value was found to be 0.031 mg/cm^2, the “Firmness (turgor MPa)” value was 0.08 MPa, the Internode length is recorded as 8.1 and the “Sugar level (%)” value stood at 6.8%. Besides, the “Yield” value with Lettuce (lettuce fresh weight (yield st. error ±8), foliar, equivalent of 5 lt/ha of end product in 180 lt of water) worked out at 213 g. The “Fe content (mg/kg dw)” value in the experiment on Lettuce (lettuce tissue, dry weight, foliar, equivalent of 5 lt/ha) was determined as 254 mg/kg dw. In addition, in the experiment with Lettuce (lettuce tissue, fresh weight, foliar, equivalent of 5 lt/ha), the “Mg content (mg/kg fw)” value was found to be 480 mg/kg fw. Further, in the experiment with Lettuce (setting [1]), the “Chlorophyll (mg/cm^2)” value was 0.029 mg/cm^2, the Leaf number is recorded as 28 and the “Sugar level (%)” value is on record as 5.5%. In addition, the “Weight loss (%)” value in the experiment on Lettuce (lettuce, weight loss after 7 days in ambient temperature (indication of shelf life)) is 22%.
